Here are results for 10 compounds from ChEMBL document CHEMBL1201862, “PubChem BioAssay data set” (2004).

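Five concentrations, 48 hours, 96-well plates. Here, GI50 denotes the concentration required for 50% inhibition of growth.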 Active and inactive are the calls of the source. No stated cut-off is given here; in the data, active = GI50 up to about 1.1 µM and inactive = higher. A value given as a limit tells only on which side of the number the result lay.

Some test systems named below: UACC-257; PC-3; OVCAR-5; OVCAR-4; OVCAR-8; HT-29; IGROV-1; OVCAR-3; SK-MEL-2; MDA-MB-231; SF-539; SNB-19; NCI-H226; Hs-578T; TK-10; NCI-H23; K562; HOP-62; HCT-15.
Holding throughout (experiment): growth of human tumour cells (NCI), 48 h

Consider `Cc1cc(S(=O)(=O)Nc2nc(Nc3ccccc3)n[nH]2)c(SCC(=O)O)cc1Cl`, for which the GI50 in the assay on UACC-257, in the assay with PC-3, in the assay on OVCAR-5, in the assay with OVCAR-4, in the assay on OVCAR-8 and in the assay with HT-29 was > 100 µM (inactive) throughout. The GI50 in the assay with IGROV-1, with OVCAR-3, with SK-MEL-2, in the assay with MDA-MB-231, in the assay with SF-539 and in the assay on SNB-19 was > 100 µM (inactive) each time. Besides, the GI50 with NCI-H226, with Hs-578T, with TK-10, with NCI-H23, in the assay with K562 and with HOP-62 was > 100 µM (inactive) each time. This compound also displayed a GI50 with HCT-15 above 100 µM.
Take `COC(=O)/C=C1/OC(c2ccc(Br)cc2)=C(Br)C1=O`: the GI50 was 13.3 µM (inactive) in the assay on UACC-257; 6.93 µM (inactive) with PC-3; 6.34 µM (inactive) in the assay with OVCAR-5; 5.16 µM (inactive) with OVCAR-4; 3.29 µM (inactive) in the assay with OVCAR-8; 4.29 µM (inactive) in the assay on HT-29. The GI50 with IGROV-1 is 6.34 µM (inactive); in the assay on OVCAR-3, 4.35 µM (inactive); with SK-MEL-2 it was 10.6 µM (inactive); with MDA-MB-231, 2.43 µM (inactive); with SF-539, 5.94 µM (inactive); in the assay on SNB-19 it was 10.4 µM (inactive). Further, the GI50 with NCI-H226 was 14.4 µM (inactive); in the assay on Hs-578T, 8.38 µM (inactive); in the assay on TK-10, 6.59 µM (inactive); with NCI-H23, 6.7 µM (inactive); in the assay with K562, 2.47 µM (inactive); with HOP-62, 7.57 µM (inactive). Besides, in the assay on HCT-15, the GI50 is 5.14 µM.
Turning to `COc1cc(S(=O)(=O)Nc2nc(-c3ccc(N4C(=O)/C(=C/C=C/c5ccccc5)N=C4c4ccccc4)cc3)cs2)ccc1Cl`, the GI50 with UACC-257, with PC-3, in the assay on OVCAR-5, in the assay on OVCAR-4, with OVCAR-8 and in the assay on HT-29 was > 100 µM (inactive) throughout. Besides, the GI50 with IGROV-1 is 37 µM (inactive); in the assay on OVCAR-3 it was > 100 µM (inactive); in the assay on SK-MEL-2, 78.3 µM (inactive); in the assay with MDA-MB-231, 34.3 µM (inactive); in the assay with SF-539, > 100 µM (inactive); in the assay with SNB-19, 99.3 µM (inactive). The GI50 in the assay on NCI-H226 is > 100 µM (inactive); in the assay on Hs-578T it was 36.2 µM (inactive); with TK-10 it was > 100 µM (inactive); in the assay on NCI-H23, > 100 µM (inactive); in the assay on K562, 72.3 µM (inactive); with HOP-62 it was > 100 µM (inactive). The compound further registered a GI50 in the assay on HCT-15 above 100 µM.
Regarding `O=C1OC(c2ccc(Cl)cc2)=N/C1=C\c1ccccc1`, the GI50 in the assay on UACC-257, in the assay with PC-3, in the assay on OVCAR-5, with OVCAR-4, with OVCAR-8 and with HT-29 was > 100 µM (inactive) throughout. Besides, the GI50 with IGROV-1 was > 100 µM (inactive); with OVCAR-3, 42.3 µM (inactive); with SK-MEL-2, > 100 µM (inactive); in the assay with MDA-MB-231 it was > 100 µM (inactive); with SF-539, > 100 µM (inactive); in the assay with SNB-19 it was > 100 µM (inactive). Further, the GI50 in the assay with NCI-H226, with Hs-578T, in the assay with TK-10, in the assay on NCI-H23, in the assay on K562 and with HOP-62 was > 100 µM (inactive) in each case. In addition, the GI50 in the assay on HCT-15 was above 100 µM.
Take `N=C(N)SCc1ccc2c(c1)S(=O)(=O)c1ccccc1O2`: the GI50 was 16.3 µM (inactive) with UACC-257; 17.7 µM (inactive) in the assay on PC-3; 22 µM (inactive) in the assay with OVCAR-5; 22.3 µM (inactive) in the assay on OVCAR-4; 30.1 µM (inactive) in the assay with OVCAR-8; 15.6 µM (inactive) with HT-29. The GI50 in the assay with IGROV-1 was 16.4 µM (inactive); with OVCAR-3 it was 17 µM (inactive); in the assay with SK-MEL-2 it was 16.4 µM (inactive); in the assay on MDA-MB-231, 39.8 µM (inactive); with SF-539 it was 26.1 µM (inactive); with SNB-19, 61.1 µM (inactive). In addition, the GI50 in the assay on NCI-H226 is 16.7 µM (inactive); in the assay on Hs-578T it was 22.9 µM (inactive); with TK-10, 15.7 µM (inactive); with NCI-H23, 19.1 µM (inactive); in the assay on K562, 26.7 µM (inactive); in the assay with HOP-62 it was 19 µM (inactive). In the assay with HCT-15, this compound showed a GI50 of 25.8 µM.
As to `COC1=C(Br)C(O)C2(C=C1Br)CC(C(=O)NCCCCNC(=O)C1=NOC3(C=C(Br)C(OC)=C(Br)C3O)C1)=NO2` (stereo not given), the GI50 was 16.3 µM (inactive) in the assay with UACC-257; 20.4 µM (inactive) with PC-3; 50.4 µM (inactive) in the assay on OVCAR-5; 54.3 µM (inactive) in the assay on OVCAR-4; 20.3 µM (inactive) in the assay with OVCAR-8; 15.9 µM (inactive) with HT-29. Besides, the GI50 with IGROV-1 is 11.7 µM (inactive); in the assay with OVCAR-3 it was 15.6 µM (inactive); in the assay with SK-MEL-2, 23.7 µM (inactive); in the assay with MDA-MB-231 it was 22.3 µM (inactive); with SF-539 it was 19.8 µM (inactive); in the assay on SNB-19, 37.3 µM (inactive). The GI50 is 4.73 µM (inactive) with NCI-H226; 12.4 µM (inactive) in the assay with Hs-578T; 65.3 µM (inactive) in the assay with TK-10; 40.5 µM (inactive) in the assay with NCI-H23; 16.3 µM (inactive) with K562; 30.5 µM (inactive) in the assay on HOP-62. Further, the GI50 in the assay on HCT-15 is 49 µM.
Consider `COc1cc2c(/C=C3/C(=O)Nc4cc(C)c(O)cc43)c(Cl)[nH]c2cc1C`, for which the GI50 in the assay with UACC-257 is 6.18 µM (inactive); with PC-3, 3.18 µM (inactive); in the assay on OVCAR-5, 4.33 µM (inactive); in the assay on OVCAR-4, 4.31 µM (inactive); in the assay with OVCAR-8, 3.69 µM (inactive); in the assay on HT-29 it was 2.33 µM (inactive). Besides, the GI50 was 4.06 µM (inactive) in the assay on IGROV-1; 1.06 µM (active) in the assay with OVCAR-3; 4.98 µM (inactive) in the assay with SK-MEL-2; 2.59 µM (inactive) in the assay on MDA-MB-231; 2.2 µM (inactive) in the assay on SF-539; 2.82 µM (inactive) in the assay on SNB-19. Moreover, the GI50 in the assay with NCI-H226 was 5.69 µM (inactive); with Hs-578T, 2.13 µM (inactive); with TK-10, 1.9 µM (inactive); in the assay with NCI-H23, 1.26 µM (inactive); in the assay with K562, 0.815 µM (active); in the assay on HOP-62, 2 µM (inactive). For the same compound, the GI50 with HCT-15 is 3.33 µM.
For `O=c1[nH]c2c(Nc3c4ccccc4nc4ccccc34)c([N+](=O)[O-])c(Nc3c4ccccc4nc4ccccc34)c([N+](=O)[O-])c2[nH]1`, the GI50 is 2.41 µM (inactive) in the assay with UACC-257; 2.05 µM (inactive) with PC-3; 1.8 µM (inactive) with OVCAR-5; 2.35 µM (inactive) in the assay with OVCAR-4; 1.21 µM (inactive) in the assay on OVCAR-8; 0.618 µM (active) in the assay on HT-29. Further, the GI50 in the assay on IGROV-1 was 1.69 µM (inactive); in the assay on OVCAR-3, 2.15 µM (inactive); in the assay on SK-MEL-2 it was 1.87 µM (inactive); in the assay with MDA-MB-231, 2.06 µM (inactive); in the assay on SF-539, 2.61 µM (inactive); with SNB-19, 2.64 µM (inactive). Besides, the GI50 in the assay on NCI-H226 was 2.68 µM (inactive); in the assay with Hs-578T, 2.27 µM (inactive); with TK-10, 2.11 µM (inactive); with NCI-H23, 1.26 µM (inactive); with K562, 2.59 µM (inactive); in the assay with HOP-62, 1.69 µM (inactive). In addition, in the assay on HCT-15, the GI50 was 1.82 µM.
On to `CC(C)=CCC/C(C)=C/CC/C(C)=C/CSc1ccccc1C(=O)O` [SALIRASIB], for which the GI50 in the assay on UACC-257 is 34.8 µM (inactive); in the assay on PC-3, 19.3 µM (inactive); with OVCAR-5, 19.2 µM (inactive); in the assay on OVCAR-4, 36.9 µM (inactive); with OVCAR-8, 17.4 µM (inactive); with HT-29, 20.5 µM (inactive). Besides, the GI50 in the assay with IGROV-1 is 16.5 µM (inactive); with OVCAR-3 it was 16.5 µM (inactive); in the assay with SK-MEL-2 it was 14.4 µM (inactive); with MDA-MB-231 it was 22.6 µM (inactive); with SF-539, 17.5 µM (inactive); with SNB-19 it was 21 µM (inactive). Moreover, the GI50 is 23.5 µM (inactive) in the assay with NCI-H226; 17.8 µM (inactive) with Hs-578T; 28.4 µM (inactive) in the assay on TK-10; 18.2 µM (inactive) in the assay on NCI-H23; 36.6 µM (inactive) with K562; 16.9 µM (inactive) in the assay on HOP-62. For the same compound, the GI50 with HCT-15 is 14.7 µM.
For the compound `Cc1c(O)ccc2c(O)c(NC(=O)c3ccc4c(c3)CCC(C)(C)O4)c(=O)oc12` [CYCLONOVOBIOCIC ACID], the GI50 in the assay on UACC-257, with PC-3, in the assay with OVCAR-5, in the assay on OVCAR-4, in the assay on OVCAR-8 and with HT-29 was > 100 µM (inactive) throughout. The GI50 with IGROV-1, with OVCAR-3, in the assay on SK-MEL-2, in the assay on MDA-MB-231, in the assay with SF-539 and in the assay with SNB-19 was > 100 µM (inactive) in each case. The GI50 in the assay with NCI-H226, in the assay with Hs-578T, with TK-10, with NCI-H23, in the assay with K562 and with HOP-62 was > 100 µM (inactive) throughout. In the assay on HCT-15, this compound had a GI50 above 100 µM.
